For series [1], the system named is removed guinea pig heart. Put plainly: Cardiovascular activity measured according to Langedorff's method by using the removed guinea pig heart. The note with it: Concentration 10^-4 g/ml; for Heart Movements: Amplitude / Heart Movements: Tonus: arrow symbols. The protocol: (§1) For administration of the compounds of this invention into the human body, it is recommended to give them at the dose of 10 to 500 mg/day for internal administration and 1 to 50 mg/day for intravenous aministration. The compounds can be administered as such or in combination with a pharmaceutical carrier conventionally employed in cardiovascular and like preparations.

A short description of series [2]: LD50 on mice. The note with it: in vivo, ip; mouse. The procedure: as §1

`COc1ccc(CN2CCN(CC(O)c3ccccc3)CC2)c(OC)c1OC` (centres unmarked) [Example 13]: in series [1], the “Coronary perfusion pressure (Δ%)” value was -16.0 Δ%, the “Heart rate (Δ%)” value is -54.5 Δ%, the “Heart Movements: Amplitude” value is on record as “.dwnarw” and the “Heart Movements: Tonus” value is reported as “→”. For the same molecule, the LD50 in series [2] was 106 mg/kg.
Take `COc1ccc(CN2CCN(CCCCCCCCN3CCN(Cc4ccc(OC)c(OC)c4OC)CC3)CC2)c(OC)c1OC` [Example 9]: in series [1], the “Coronary perfusion pressure (Δ%)” value is reported as -10.0 Δ%, the “Heart rate (Δ%)” value was -28.6 Δ%, the “Heart Movements: Amplitude” value is given as “.dwnarw” and the “Heart Movements: Tonus” value is listed as “.dwnarw”.
Consider `COc1ccc(CN2CCN(CC(O)COc3ccccc3)CC2)c(OC)c1OC` (centres unmarked) [Example 14], for which, in series [1], the “Coronary perfusion pressure (Δ%)” value was -20.0 Δ%, the “Heart rate (Δ%)” value was -48.7 Δ%, the “Heart Movements: Amplitude” value is on record as “.dwnarw” and the “Heart Movements: Tonus” value was “.dwnarw”. Also, the LD50 in series [2] was 142 mg/kg.
For `COc1ccc(CN2CCN(CCCCCCN3CCN(Cc4ccc(OC)c(OC)c4OC)CC3)CC2)c(OC)c1OC` [Example 8], in series [1], the “Coronary perfusion pressure (Δ%)” value is given as -19.2 Δ%, the “Heart rate (Δ%)” value was -19.1 Δ%, the “Heart Movements: Amplitude” value was “.dwnarw” and the “Heart Movements: Tonus” value is on record as “→”. For the same molecule, the LD50 in series [2] is 84 mg/kg.
For the molecule `COc1ccc(CN2CCN(CCN3CCN(Cc4ccc(OC)c(OC)c4OC)CC3)CC2)c(OC)c1OC` [Example 6], in series [1], the “Coronary perfusion pressure (Δ%)” value is -3.7 Δ%, the “Heart rate (Δ%)” value is -11.7 Δ%, the “Heart Movements: Amplitude” value is “.dwnarw” and the “Heart Movements: Tonus” value was “→”.
As to `COc1ccc(CN2CCN(CC(C)O)CC2)c(OC)c1OC` (centres unmarked) [Example 11], in series [1], the “Coronary perfusion pressure (Δ%)” value is -11.1 Δ%, the “Heart rate (Δ%)” value is -49.4 Δ%, the “Heart Movements: Amplitude” value is listed as “.dwnarw” and the “Heart Movements: Tonus” value is recorded as “→”. Moreover, the LD50 in series [2] amounted to 336 mg/kg.
Turning to `COc1ccc(CN2CCN(CCN3CCOCC3)CC2)c(OC)c1OC` [Example 4], in series [1], the “Coronary perfusion pressure (Δ%)” value is recorded as -2.1 Δ%, the “Heart rate (Δ%)” value is -8.6 Δ%, the “Heart Movements: Amplitude” value was “.uparw” and the “Heart Movements: Tonus” value is “→”. Also, the LD50 in series [2] is 567 mg/kg.
`COc1ccc(CN2CCN(c3nc(N)nc(N)n3)CC2)c(OC)c1OC` [Example 3]: in series [1], the “Coronary perfusion pressure (Δ%)” value is given as 4.4 Δ%, the “Heart rate (Δ%)” value is listed as -21.9 Δ%, the “Heart Movements: Amplitude” value is “.dwnarw” and the “Heart Movements: Tonus” value is “→”.
As to `COc1ccc(CN2CCN(CC(O)CO)CC2)c(OC)c1OC` (centres unmarked) [Example 12], in series [1], the “Heart rate (Δ%)” value is -16.1 Δ%, the “Heart Movements: Amplitude” value was “.dwnarw” and the “Heart Movements: Tonus” value was “→”. The LD50 in series [2] came to 724 mg/kg.
Take `COc1ccc(CN2CCN(CC=C(C)C)CC2)c(OC)c1OC` [Example 1]: in series [1], the “Coronary perfusion pressure (Δ%)” value is 5.7 Δ%, the “Heart rate (Δ%)” value is -18.2 Δ%, the “Heart Movements: Amplitude” value is recorded as “.dwnarw” and the “Heart Movements: Tonus” value was “→”.
As for `COc1ccc(CN2CCN(CCCCN3CCN(Cc4ccc(OC)c(OC)c4OC)CC3)CC2)c(OC)c1OC` [Example 7], in series [1], the “Coronary perfusion pressure (Δ%)” value is given as -18.8 Δ%, the “Heart rate (Δ%)” value was -37.5 Δ%, the “Heart Movements: Amplitude” value is “.dwnarw” and the “Heart Movements: Tonus” value is “→”. In addition, the LD50 in series [2] was determined as 239 mg/kg.
On the same counts, the results for `COc1ccc(CN2CCN(CCO)CC2)c(OC)c1OC` [Example 10] are -4.4 Δ%, -10.7 Δ%, “.dwnarw”, “.dwnarw” and 567 mg/kg.
For the molecule `COc1ccc(CN2CCN(CC=Cc3ccccc3)CC2)c(OC)c1OC` [Example 2], in series [1], the “Coronary perfusion pressure (Δ%)” value is given as -11.1 Δ%, the “Heart rate (Δ%)” value was -60.3 Δ%, the “Heart Movements: Amplitude” value is “.dwnarw” and the “Heart Movements: Tonus” value is “→”.

As a reminder, the LD50 is the dose at which mortality reaches 50%.

The values are drawn from patent publication US4100285A, “N-substituted trialkoxybenzyl piperazine derivatives” (Nippon Shinyaku Co., Ltd., priority 1976, dated 1978).
